Laboratory results reported in ChEMBL document CHEMBL1126112 (J Med Chem, 1992).

Key:
[1] = species: Cavia porcellus; assay: Tested for naloxone pA2 activity in guinea pig ileum; format: functional
[2] = target: Mu-type opioid receptor (Cavia porcellus, UniProt P97266); assay: Tested for inhibitory effect on binding of [3H]DAMGO to opioid receptor mu in guinea pig cerebellum membranes; format: cell membranes, Membrane
[3] = target: Opioid receptors; mu/kappa/delta (Homo sapiens, UniProt P41145+P41143+P35372); assay: Tested for opioid receptor agonistic activity in guinea pig ileum; format: functional, tissue-based, Cavia porcellus; details: target entry is the homologue from another species
[4] = target: Kappa-type opioid receptor (Cavia porcellus, UniProt P41144); assay: Tested for inhibitory effect on binding of [3H]bremazocine to opioid receptor kappa in guinea pig cerebellum membranes; format: cell membranes, Membrane
Kappa-type opioid receptor, sequence (P41144 whole entry): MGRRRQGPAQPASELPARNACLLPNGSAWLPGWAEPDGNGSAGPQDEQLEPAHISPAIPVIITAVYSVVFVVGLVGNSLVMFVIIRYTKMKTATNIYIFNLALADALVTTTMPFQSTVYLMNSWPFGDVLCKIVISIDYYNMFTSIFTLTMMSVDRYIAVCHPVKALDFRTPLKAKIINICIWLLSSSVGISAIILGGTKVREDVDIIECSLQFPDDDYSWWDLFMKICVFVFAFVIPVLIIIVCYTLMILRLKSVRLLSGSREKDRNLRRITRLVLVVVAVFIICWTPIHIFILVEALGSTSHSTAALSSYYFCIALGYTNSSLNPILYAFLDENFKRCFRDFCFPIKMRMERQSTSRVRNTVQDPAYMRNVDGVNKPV

Mu-type opioid receptor, sequence (P97266 whole entry): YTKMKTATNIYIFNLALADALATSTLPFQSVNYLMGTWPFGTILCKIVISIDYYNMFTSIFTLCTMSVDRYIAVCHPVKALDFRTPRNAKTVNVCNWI

Work on `CN1CC[C@]23c4c5ccc(O)c4O[C@H]2[C@@H](O)C=C[C@H]3[C@H]1C5` [MORPHINE] yielded an Activity [1] of 8.2.
Compound `C=CCN(CC=C)[C@@H](Cc1ccc(O)cc1)C(=O)NCC(=O)NCC(=O)N[C@@H](Cc1ccccc1)C(=O)N[C@@H](CC(C)C)C(=O)N[C@@H](CCCN=C(N)N)C(=O)N[C@@H](CCCN=C(N)N)C(=O)N[C@H](C(=O)N[C@@H](CCCN=C(N)N)C(=O)N1CCC[C@@H]1C(=O)N[C@@H](CCCCN)C(=O)O)[C@@H](C)CC` has a Ki [2] of 31.7 nM, an IC50 [3] of 687 nM and a Ki [4] of 3.6 nM.
In the case of `C=CCN[C@@H](Cc1ccc(O)cc1)C(=O)NCC(=O)NCC(=O)N[C@@H](Cc1ccccc1)C(=O)N[C@@H](CC(C)C)C(=O)N[C@@H](CCCN=C(N)N)C(=O)N[C@@H](CCCN=C(N)N)C(=O)N[C@H](C(=O)N[C@@H](CCCN=C(N)N)C(=O)N1CCC[C@@H]1C(=O)N[C@@H](CCCCN)C(=O)O)[C@@H](C)CC`, the Activity [1] is reported as 7.6.
In the case of `CC[C@H](C)[C@H](NC(=O)[C@H](CCCN=C(N)N)NC(=O)[C@H](CCCN=C(N)N)NC(=O)[C@H](CC(C)C)NC(=O)[C@H](Cc1ccccc1)NC(=O)CNC(=O)CNC(=O)[C@@H](N)Cc1ccc(O)cc1)C(=O)N[C@@H](CCCN=C(N)N)C(=O)N1CCC[C@@H]1C(=O)N[C@@H](CCCCN)C(=O)O`, the Activity [1] is reported as 7.2.
In the case of `CC[C@H](C)[C@H](NC(=O)[C@H](CCCN=C(N)N)NC(=O)[C@H](CCCN=C(N)N)NC(=O)[C@H](CC(C)C)NC(=O)[C@H](Cc1ccccc1)NC(=O)CNC(=O)CNC(=O)[C@H](Cc1ccc(O)cc1)NCC1CC1)C(=O)N[C@@H](CCCN=C(N)N)C(=O)N1CCC[C@@H]1C(=O)N[C@@H](CCCCN)C(=O)O`, the Ki [2] is reported as 9.6 nM, the IC50 [3] is reported as 2.16 nM and the Activity [1] is reported as 7.3. It also gave a Ki [4] of 0.02 nM.
